From patent publication US20260166039A1 (SCHRÖDINGER, INC., priority 2022, published 2026)
Like-named read-outs stand apart in the source and are kept apart here.

What was measured:
[1] = molecular target: T1, Wee1 kinase domain (Homo sapiens, UniProt P30291); test: Wee1 Kinase Biochemical Assay (ADP-Glo); details: 15 uM ATP
T1 construct: Wee1 kinase domain was purchased from Carna (catalog #05-177); purchased Carna 05-177
Procedure, shortened: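 Compounds tested against 1 nM Wee1 kinase domain in Tris buffer containing 20 mM MgCl2, BSA and 2 mM DTT, with 15 uM ATP and poly(Lys,Tyr) substrate for 4 h at 25 °C. Luminescent ADP detection gave percent inhibition, normalized to DMSO and saturating inhibitor.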

[2] = test system: phosphorylation of Cdc2 Y15 (Wee1 substrate) in A427 cells; test: Phosphorylated Cdc2 MSD Electrochemiluminescence Assay; assay type: cell-based; details: Homo sapiens
Procedure, shortened: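 Read-out: percent residual phospho-Cdc2 Y15 relative to DMSO and positive-control Wee1 inhibitor, measured by MSD electrochemiluminescence capture/detection antibody assay in cell lysates. A427 cells received duplicate 3-fold compound dilution series 20 h post-seeding, with 6 h total incubation at 37 °C.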

[3] = class symbols, 1 nM Wee1 enzyme, 4 hours at 25° C.
[4] = A-427, class symbols, read-out: A427 pCDC2 MSD IC50

T1 sequence (P30291 299-569 limits assumed): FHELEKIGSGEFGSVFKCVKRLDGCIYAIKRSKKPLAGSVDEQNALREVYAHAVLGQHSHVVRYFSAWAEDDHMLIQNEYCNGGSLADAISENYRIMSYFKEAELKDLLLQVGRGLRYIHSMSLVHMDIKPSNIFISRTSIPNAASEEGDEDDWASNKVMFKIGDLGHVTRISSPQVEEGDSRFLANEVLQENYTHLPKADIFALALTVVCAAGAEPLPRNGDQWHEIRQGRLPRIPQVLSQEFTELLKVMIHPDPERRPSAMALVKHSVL

Row | SMILES | IC50 ([1]; Wee1 kinase domain, ADP-Glo) [µM] | IC50 ([2]; A-427, pCDC2 MSD) [µM] | IC50 [1, 3] [µM] | IC50 [2, 4] [µM]
1 | C[C@H]1COC(=O)N1c1cccc(N2c3nc(Nc4ccc(N5C[C@H]6C[C@@H](C5)N6C)cc4)ncc3[C@@]3(C)COC(C)(C)C[C@@H]23)n1 (single isomer, unassigned) [Example 352] | < 0.01 | 0.1 to 1 |  | 
2 | CN[C@H](C)c1cccc(N2c3nc(Nc4ccn(C5CCOCC5)c(=O)c4)ncc3[C@@]3(C)COC(C)(C)C[C@@H]23)n1 (single isomer, unassigned) [Example 391] | < 0.01 | 0.1 to 1 |  | 
3 | CN1CCN(c2cccc(N3c4nc(Nc5ccc(N6CCOCC6)cc5)ncc4[C@@]4(C)COC(C)(C)C[C@@H]34)n2)CC1 (single isomer, unassigned) [Example 535] |  |  | < 0.01 | 0.1 to 1
4 | CNCc1cccc(N2c3nc(Nc4ccc(N5[C@@H]6COC[C@H]5C6)cc4)ncc3[C@@]3(C)COC(C)(C)C[C@@H]23)n1 (single isomer, unassigned) [Example 479] |  |  | < 0.01 | 0.1 to 1
5 | CC1(C)C[C@@H]2N(c3cccc(C(C)(C)O)n3)c3nc(Nc4ccc(O[C@@H]5CCNC5)cc4)ncc3[C@]2(C)CO1 (single isomer, unassigned) [Example 417] |  |  | < 0.01 | < 0.1
6 | CNCc1cccc(N2c3nc(Nc4ccc(N5CCOCC5)c(Cl)c4)ncc3[C@@]3(C)COC(C)(C)C[C@@H]23)n1 (single isomer, unassigned) [Example 14] | < 0.01 | 0.1 to 1 |  | 

The next lines start with the values.

Row | IC50 ([1]; Wee1 kinase domain, ADP-Glo) [µM] | IC50 ([2]; A-427, pCDC2 MSD) [µM] | IC50 [1, 3] [µM] | IC50 [2, 4] [µM] | SMILES
7 | < 0.01 | 0.1 to 1 |  |  | C[C@H]1COC(=O)N1c1cccc(N2c3nc(Nc4ccc(N5CCN(C)CC5)nn4)ncc3[C@@]3(C)COC(C)(C)C[C@@H]23)n1 [Example 249]
8 |  |  | < 0.01 | 0.1 to 1 | CN1CC[C@@](C)(c2ccc(Nc3ncc4c(n3)N(c3cccc(N5CCOC5=O)n3)[C@@H]3CC(C)(C)OC[C@]43C)cc2)C1 [Example 670, 3-(6-((4bR,8aR)-2-((4-((S)-1,3-dimethylpyrrolidin-3-yl)phenyl)amino)-4b,7,7-trimethyl-4b,7,8,8a-tetrahydropyrano[3′,4′:4,5]pyrrolo[2,3-d]pyrimidin-9(5H)-yl)pyridin-2-yl)oxazolidin-2-one]
9 | < 0.01 | 0.1 to 1 |  |  | CN1CCC(n2ccc(Nc3ncc4c(n3)N(c3cccc(N=S(C)(C)=O)n3)[C@@H]3CC(C)(C)OC[C@]43C)cc2=O)CC1 [Example 152, 4-(((4bR,8aR)-9-(6-((dimethyl(oxo)-16-sulfaneylidene)amino)pyridin-2-yl)-4b,7,7-trimethyl-4b,5,7,8,8a,9-hexahydropyrano[3′,4′:4,5]pyrrolo[2,3-d]pyrimidin-2-yl)amino)-1-(1-methylpiperidin-4-yl)pyridin-2(1H)-one]
10 |  |  | < 0.01 | < 0.1 | CNC1(c2cccc(N3c4nc(Nc5ccc(C6CCN(C)CC6)c(C)c5)ncc4[C@@]4(C)COC(C)(C)C[C@@H]34)n2)CC1 (single isomer, unassigned) [Example 575]
11 |  |  | < 0.01 | 0.1 to 1 | CN1CCN(c2ccc(Nc3ncc4c(n3)N(c3cccc(S(C)(=O)=O)n3)[C@@H]3CC(C)(C)OC[C@]43C)cc2)CC1 (single isomer, unassigned) [Example 749]
12 |  |  | < 0.01 | < 0.1 | CN[C@H]1CCc2ccc(N3c4nc(Nc5ccc(N6CCOCC6)cc5)ncc4C4(C)COC(C)(C)CC34)nc21 (stereo in doubt) [Example 551, (4bR,8aR)-4b,7,7-trimethyl-9-((S)-7-(methylamino)-6,7-dihydro-5H-cyclopenta[b]pyridin-2-yl)-N-(4-morpholinophenyl)-4b,5,7,8,8a,9-hexahydropyrano[3′,4′:4,5]pyrrolo[2,3-d]pyrimidin-2-amine]
13 | < 0.01 | < 0.1 |  |  | CN1Cc2cc(Nc3ncc4c(n3)N(c3cccc(N=S(C)(C)=O)n3)[C@@H]3CC(C)(C)OC[C@]43C)ccc2C2(CC2)C1 (single isomer, unassigned) [Example 107]
14 |  |  | < 0.01 | 0.1 to 1 | CC1(C)C[C@H]2N(c3cccc(N=S(C)(C)=O)n3)c3nc(N)ncc3[C@@]2(C)CO1 (single isomer, unassigned) [Example 746]
